Measurements taken from patent US20240099989A1, “AGENT FOR PREVENTING OR IMPROVING PERIPHERAL NEUROPATHY” (KINKI UNIVERSITY, priority 2021, published 2024).
Entries after “also recorded” stand apart in the source; their conditions may differ. Like-named read-outs stand apart in the source and are kept apart here.

Experiments:
[1] = tested on: Peripheral Neuropathy in a Mouse Caused by Bortezomib; assay type: in vivo, Balb/c mice
Text: (§1) Six to seven-week-old female Balb/c mice were used for the tests. All the mice were acclimated for seven days after arrival. Then, the mice were grouped into the following four groups: a control group, a group receiving bortezomib, a group receiving xylitol, and a group receiving bortezomib and xylitol (a group receiving bortezomib+xylitol). Each group consisted of five mice.
(§2) On Day 8 of acclimation, the mice in the group receiving bortezomib and the group receiving bortezomib+xylitol were intraperitoneally administered with bortezomib at a dose of 1 mg/kg. This day was designated as Day 0 of administration. Thereafter, these mice were intraperitoneally administered with bortezomib at a daily dose of 1 mg/kg on Day 7 and Day 14.
The mice in the group receiving xylitol and the group receiving bortezomib+xylitol were orally administered with xylitol at a dose of 5 mg/kg daily from Day 0.
(§3) A cold plate test was performed to examine the effect of xylitol on paresthesia that is caused by a low temperature stimulus. The mice in the four groups described in (10) of the present example (Example 1) were placed on a cold plate set at 10° C., and withdrawal response time (latent time) was measured. It is presumed that a shorter latent time reflects a greater degree of shunning the low temperature stimulus by the cold plate.
as §1, with “tests as with Example 1.” for “tests.”
On Day 8 of acclimation, the mice in the group receiving bortezomib and the group receiving bortezomib+xylitol were intraperitoneally administered with bortezomib at a dose of 1 mg/kg. This day was designated as the first day of the administration (Day 0). Thereafter, these mice were intraperitoneally administered with bortezomib at the same dose on Day 7 and Day 14 for a total of 3 doses.
The mice in the group receiving 100 mg/kg xylitol were orally administered with xylitol at a dose of 100 mg/kg daily from Day 0. The mice in the group receiving bortezomib+100 mg/kg xylitol were orally administered with xylitol at a dose of 100 mg/kg daily from Day 6 of administration.
as §3, with “A” for “A cold plate”, “performed on the mice in the four groups described in (12) of the present example (Example 2)” for “performed”, “respective” for “the four”, “groups” for “groups described in (10) of the present example (Example 1)”
as §1, with “tests as with Example 1.” for “tests.”, “D-threitol,” for “xylitol,”, “D-threitol” for “xylitol”, “bortezomib+D-threitol).” for “bortezomib+xylitol).”
as §2, with “bortezomib+D-threitol” for “bortezomib+xylitol”
The mice in the group receiving D-threitol and the group receiving bortezomib+D-threitol were orally administered with D-threitol at a dose of 5 mg/kg daily from Day 0.
A cold plate test was performed to examine the effect of D-threitol on paresthesia that is caused by a low temperature stimulus. […]

[2] = tested on: Peripheral Neuropathy in a Mouse Caused by Oxaliplatin; assay: Cold plate test (10° C.), peripheral neuropathy caused by oxaliplatin; assay type: in vivo, Balb/c mice
Method: The preventive action of xylitol on hyperesthesia that occurs when an anticancer drug, oxaliplatin, was administered was examined. […] Xylitol was orally administered to a mouse simultaneously with the administration of oxaliplatin, and the following tests (cold plate test and von Frey test) were performed. Oxaliplatin is an anticancer drug classified as a platinum-containing drug. In all of the examples described below, a dosage (administered amount) (mg/kg) refers to the weight of the administered substance per kg body weight of the mouse.
Six to seven-week-old female Balb/c mice were used for the tests. All the mice were acclimated for seven days after arrival. Then, the mice were grouped into the following four groups: a control group, a group receiving oxaliplatin, and two groups receiving oxaliplatin and two different doses of xylitol (groups receiving oxaliplatin+xylitol). Each group consisted of nine mice.
On Day 8 of acclimation, the mice in the group receiving oxaliplatin and the groups receiving oxaliplatin+xylitol were intraperitoneally administered with oxaliplatin at a dose of 6 mg/kg. This day was designated as Day 0 of administration. Thereafter, these mice were intraperitoneally administered with oxaliplatin at a daily dose of 6 mg/kg on Day 7 and Day 14.
The mice in a first group receiving oxaliplatin and xylitol were orally administered with xylitol at a dose of 1 mg/kg daily from Day 0. The mice in a second group receiving oxaliplatin and xylitol were orally administered with xylitol at a dose of 5 mg/kg daily from Day 0.
as §3, with “(1)” for “(10)”
Six to seven-week-old female Balb/c mice were used for the tests as with Example 1. All the mice were acclimated for seven days after arrival. Then, the mice were grouped into the following five groups: a control group, a group receiving only oxaliplatin, and three groups receiving oxaliplatin and three different doses of xylitol. Each group consisted of seven mice.
On Day 8 of acclimation, the mice in the groups other than the control group were intraperitoneally administered with oxaliplatin at a dose of 6 mg/kg. This day was designated as the first day of the administration (Day 0). Thereafter, these mice were intraperitoneally administered with oxaliplatin at the same dose on Day 7 and Day 14 for a total of 3 doses.
The mice in a first group receiving oxaliplatin+xylitol were orally administered with xylitol at a dose of 5 mg/kg daily from Day 6 of administration. The mice in a second group receiving oxaliplatin+xylitol were orally administered with xylitol at a dose of 25 mg/kg daily from Day 6 of administration. The mice in a third group receiving oxaliplatin+xylitol were orally administered with xylitol at a dose of 100 mg/kg daily from Day 6 of administration. In this context, “Day 6 of administration” means that the number of days after administration is 6. The same applies hereinafter.
as §3, with “A” for “A cold plate”, “performed on the mice in the five groups described in (1) of the present example (Example 2)” for “performed”, “respective” for “the four”, “groups” for “groups described in (10) of the present example (Example 1)”
Six to seven-week-old female Balb/c mice were used for the tests as with Example 1. All the mice were acclimated for seven days after arrival. […]

[3] = 1 mg/kg bortezomib + 5 mg/kg test substance orally daily from Day 0 (prevention)
[4] = 1 mg/kg bortezomib + 100 mg/kg orally daily from Day 6, on Day 12, vs group receiving 1 mg/kg bortezomib
[5] = 6 mg/kg oxaliplatin + 5 mg/kg test substance orally daily from Day 0 (prevention)
[6] = 6 mg/kg oxaliplatin + 100 mg/kg test substance orally daily from Day 6 (therapy), time course after Day 6

OC[C@H](O)[C@H](O)[C@H](O)[C@@H](O)CO [L-talitol]
withdrawal response time (latent time) [1, 3]: approximately similar to that of the control group | withdrawal response time (latent time) [1, 4]: significantly longer withdrawal response time | withdrawal response time (latent time) [2, 5]: almost the same data; also recorded: approximately similar to that of the control group | withdrawal response time (latent time) [2, 6]: tended to become longer from Day 9 onwards; also recorded: significantly longer withdrawal response time

OC[C@@H](O)[C@H](O)CO [D-threitol]
withdrawal response time (latent time) [1, 3]: approximately similar to that of the control group | withdrawal response time (latent time) [1, 4]: significantly longer withdrawal response time | withdrawal response time (latent time) [2, 5]: approximately similar to that of the control group | withdrawal response time (latent time) [2, 6]: tended to become longer from Day 6 onwards; also recorded: significantly longer withdrawal response time

OC[C@@H](O)[C@H](O)[C@@H](O)CO [xylitol]
withdrawal response time (latent time) [1, 3]: approximately similar to that of the control group | withdrawal response time (latent time) [1, 4]: significantly longer withdrawal response time | withdrawal response time (latent time) ([2]; 6 mg/kg oxaliplatin + 1 mg/kg test substance orally daily from Day 0 (prevention)): approximately similar to that of the control group | withdrawal response time (latent time) ([2]; 6 mg/kg oxaliplatin + 5 mg/kg orally daily from Day 6, on Day 10, vs group receiving 6 mg/kg oxaliplatin): significantly longer withdrawal response time | withdrawal response time (latent time) ([2]; 6 mg/kg oxaliplatin + 5 mg/kg orally daily from Day 6, on Day 14 and Day 17, vs group receiving 6 mg/kg oxaliplatin): no significant difference | withdrawal response time (latent time) ([2]; 6 mg/kg oxaliplatin + 5 mg/kg orally daily from Day 6, on Day 21, vs group receiving 6 mg/kg oxaliplatin): significantly longer withdrawal response time | withdrawal response time (latent time) [2, 5]: approximately similar to that of the control group | withdrawal response time (latent time) ([2]; 6 mg/kg oxaliplatin + 5 mg/kg test substance orally daily from Day 6 (therapy), time course after Day 6): tended to become longer from Day 6 onwards; also recorded: significantly longer withdrawal response time | withdrawal response time (latent time) ([2]; 6 mg/kg oxaliplatin + 25 mg/kg orally daily from Day 6, on Day 10, vs group receiving 6 mg/kg oxaliplatin): significantly longer withdrawal response time | withdrawal response time (latent time) ([2]; 6 mg/kg oxaliplatin + 25 mg/kg test substance orally daily from Day 6 (therapy), time course after Day 6): tended to become longer from Day 6 onwards; also recorded: increase in the withdrawal response time; also recorded: significantly longer withdrawal response time | withdrawal response time (latent time) ([2]; 6 mg/kg oxaliplatin + 100 mg/kg orally daily from Day 6, on Day 10, vs group receiving 6 mg/kg oxaliplatin): significantly longer withdrawal response time
